From ChEMBL document CHEMBL1201862, “PubChem BioAssay data set” (2004)
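Compound exposure: 48 hours, 5 concentrations, 96-well plates. GI50: concentration for 50% inhibition of growth.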 Active and inactive are the calls of the source. Cut-off read from the data, not from the text of the source: active = GI50 up to about 1.1 µM and inactive = higher.

Columns and labels:
Experiment in all cases: inhibition of tumour cell growth, NCI panel, 48 h
[1] = tested on: ACHN
[2] = tested on: COLO 205
[3] = tested on: EKVX
[4] = tested on: HOP-62
[5] = tested on: HOP-92
[6] = tested on: K562
[7] = tested on: MDA-MB-231
[8] = tested on: MDA-MB-435
[9] = tested on: MOLT-4
[10] = tested on: Malme-3M
[11] = tested on: NCI-H522
[12] = tested on: OVCAR-3
[13] = tested on: PC-3
[14] = tested on: RPMI-8226
[15] = tested on: SK-MEL-28
[16] = tested on: SK-MEL-2
[17] = tested on: SN12C
[18] = tested on: SR
[19] = tested on: SW-620
[20] = tested on: TK-10

Measured: GI50

CC(C)(CN1CCCCC1)C(/C=C/c1ccc(Cl)cc1)=N\NC(=O)N/N=C(/C=C/c1ccc(Cl)cc1)C(C)(C)CN1CCCCC1
inactive: [1] 3.82 µM | [2] 4.22 µM | [3] 5.4 µM | [4] 4.42 µM | [5] 2.38 µM | [6] 3.39 µM | [7] 2.65 µM | [8] 3.55 µM | [9] 3.11 µM | [10] 8.38 µM | [11] 2.41 µM | [12] 3.21 µM | [13] 7.24 µM | [14] 5.98 µM | [15] 9.77 µM | [16] 8.69 µM | [17] 3.85 µM | [18] 2.7 µM | [19] 2.72 µM | [20] 10.5 µM

C[Si](C)(C)C#CCO[Si](C)(C)C
inactive: [1] > 100 µM | [2] > 54.3 µM | [3] 97.9 µM | [4] > 100 µM | [5] 18.2 µM | [6] 30.9 µM | [7] > 50.2 µM | [8] > 61.4 µM | [9] 22.3 µM | [10] > 100 µM | [11] 15.9 µM | [12] > 94.2 µM | [13] > 100 µM | [14] 21 µM | [15] > 75.3 µM | [16] > 54.2 µM | [17] > 100 µM | [18] 34.1 µM | [19] 37.8 µM | [20] > 100 µM

OC(c1ccsc1)c1cc2ccccc2s1 (stereo unspecified)
inactive: [1] > 10 µM | [2] > 10 µM | [3] > 10 µM | [4] > 10 µM | [5] > 10 µM | [6] > 10 µM | [7] > 10 µM | [8] > 10 µM | [9] > 10 µM | [11] > 10 µM | [12] > 10 µM | [13] > 10 µM | [14] > 10 µM | [15] > 10 µM | [16] > 10 µM | [17] > 10 µM | [18] > 10 µM | [19] > 10 µM | [20] > 10 µM

O=C1O[C@]2(c3ccccc3)C(c3ccccc3)=C[C@]2(C(=O)c2ccccc2)C1=O
inactive: [1] 35.2 µM | [2] 48.2 µM | [3] 34 µM | [4] 34 µM | [5] 24 µM | [6] 23 µM | [7] 32.3 µM | [8] 37.2 µM | [9] 4.02 µM | [10] 65.2 µM | [11] 21.1 µM | [12] 32.6 µM | [13] 39.1 µM | [14] 25.8 µM | [15] 35.6 µM | [16] 27.2 µM | [17] 33.4 µM | [18] 10.7 µM | [19] 19.1 µM | [20] 27 µM

Nc1nc(Cl)cc(NCC2(O)CC2)n1
inactive: [1] > 100 µM | [3] > 100 µM | [4] > 100 µM | [5] > 100 µM | [6] > 100 µM | [7] > 100 µM | [8] > 100 µM | [9] > 100 µM | [10] > 100 µM | [11] > 100 µM | [12] > 100 µM | [13] > 100 µM | [14] > 100 µM | [15] > 100 µM | [16] > 100 µM | [17] > 100 µM | [18] > 100 µM | [19] > 100 µM | [20] > 100 µM

Cn1c2cn[nH]c(=O)c2c2ccc3ccccc3c21
inactive: [1] 16.9 µM | [2] 23.9 µM | [3] 3.6 µM | [4] 13.1 µM | [5] 10.6 µM | [6] 86.1 µM | [7] 15.4 µM | [8] 69.7 µM | [9] 27.2 µM | [10] > 100 µM | [11] 16.9 µM | [12] > 100 µM | [13] 51.2 µM | [14] 60.3 µM | [16] 18.2 µM | [17] 44.6 µM | [18] 35.9 µM | [19] 52.6 µM | [20] 49.8 µM

C=C(C(=O)O)[C@@H]1C[C@@H]2O[C@H]1CC(C)=CCC/C(C)=C/CC[C@@]2(C)O
inactive: [1] > 100 µM | [2] > 100 µM | [3] > 100 µM | [5] 93.5 µM | [6] > 100 µM | [7] > 100 µM | [8] > 100 µM | [9] > 100 µM | [10] > 100 µM | [11] > 100 µM | [12] > 100 µM | [13] > 100 µM | [14] > 100 µM | [15] > 100 µM | [16] > 100 µM | [17] > 100 µM | [18] > 100 µM | [19] > 100 µM | [20] > 100 µM

COc1ccc2nc3c(nc2c1)C(C)(C)C=C3c1ccc(Br)cc1
inactive: [1] > 100 µM | [2] > 100 µM | [3] > 100 µM | [4] > 100 µM | [5] 32.5 µM | [6] > 10 µM | [7] > 100 µM | [8] > 100 µM | [9] > 100 µM | [10] > 100 µM | [11] > 100 µM | [13] > 100 µM | [14] > 100 µM | [15] > 10 µM | [16] > 100 µM | [17] > 100 µM | [18] > 100 µM | [19] 5.68 µM | [20] > 100 µM

CC(C)(C)C(=O)OC(N)/C=C/c1ccccc1 (stereo unspecified)
inactive: [1] > 100 µM | [2] > 100 µM | [3] > 100 µM | [4] > 100 µM | [5] > 100 µM | [7] > 100 µM | [8] > 100 µM | [9] > 100 µM | [10] > 100 µM | [11] > 100 µM | [12] > 100 µM | [13] > 100 µM | [14] > 100 µM | [15] > 100 µM | [16] > 100 µM | [17] > 100 µM | [18] 94 µM | [19] > 100 µM

Cc1ccc(S(=O)(=O)NC(=O)NCC(=O)NCC(=O)O)cc1
inactive: [1] > 100 µM | [2] > 100 µM | [3] > 100 µM | [5] > 100 µM | [6] > 100 µM | [7] > 100 µM | [8] > 100 µM | [9] > 100 µM | [10] > 100 µM | [11] > 100 µM | [12] > 100 µM | [13] > 100 µM | [14] > 100 µM | [15] > 100 µM | [16] > 100 µM | [18] > 100 µM | [19] > 100 µM | [20] > 100 µM
